≈ marks a conversion by molar mass, not a printed value. Read-outs that look alike come from different tables or passages of the source.
Assays:
[1] = Solubility in pH buffers and bio-relevant media at 37° C.; format: physicochemical; conditions: thermodynamic from solid
[2] = format: physicochemical
Description: (§1) According to the salt screening results (see Table 4), totally 19 potential salt hits were identified. All the potential salt hits were further investigated by Differential Scanning Calorimetry (DSC), Thermogravimetric analysis (TGA), H-NMR, Ion chromatography (IC), Karl Fischer titration (KF), and Polarized Light Microscopy (PLM) to confirm their identity and evaluate their physicochemical properties as shown in Table 5 below.

[3] = Dynamic vapor sorption (DVS) test at 25° C.; format: physicochemical; conditions: for 1st Desorp. (%) / 2nd Sorp. (%) / 1st Sorp. (%) / 2nd Desorp. (%): 25° C., cycle 40-95-0-95-40% RH
[4] = Thermogravimetric analysis (TGA) weight loss; format: physicochemical; conditions: large scale batch, at the temperature printed in the same cell (100-170° C.)
Crystallinity by XRPD = format: physicochemical
Description: (§2) Obtained suspensions were taken out and centrifuged. Solids obtained was analysed by XRPD. Salts with high or medium crystallinity were further characterized (see Table 5).
as §1

[5] = Salt screening (slurry crystallization); format: physicochemical; conditions: slurry 50° C. then 25° C.
Description: About 45 mg was added to a suitable solvent and different equivalents of acids were added under stirring at 50° C. for about 2 hours and then at 25° C. for at least 32 hours. Ethanol, acetone, and ACN were used as screening solvents. When no precipitation was obtained or only a few solids were obtained, the solutions were placed at 5° C. for crystallization.
as §2

[6] = format: physicochemical; conditions: for chemical purity (%): solid state
[7] = Thermogravimetric analysis (TGA) weight loss; format: physicochemical; conditions: salt screening sample, at the temperature given (80-200° C.)
Description: as §1

[8] = Solubility in water at 25° C.; conditions: thermodynamic from solid
[9] = aqueous buffer, pH 4.5 (50 mM) acetate buffer, tested up to 2 mg/mL
[10] = aqueous buffer, pH 6.8 (50 mM) phosphate buffer, tested up to 2 mg/mL
[11] = pH 1.2 HCl buffer (0.1N HCl), simulated gastric fluid, pH 1.2 (0.1N HCl), tested up to 2 mg/mL
[12] = simulated gastric fluid, SGF, pH 2.0, tested up to 2 mg/mL
[13] = FaSSIF-V1, pH 6.5, tested up to 2 mg/mL
[14] = FeSSIF-V1, pH 5.0, tested up to 2 mg/mL
[15] = large scale batch, listed as free base (polymorph B)

COc1cc(C(F)(F)F)c(OC)cc1[C@@H]1CCCNC1 [Free base (Polymorph B), (S)-3-(2,5-dimethoxy-4-(trifluoromethyl)phenyl)piperidine]
solubility at 2 h [1, 9]: > 2000 µg/mL | solubility at 24 h [1, 9]: > 2000 µg/mL | solubility at 2 h [1, 10]: 1540 µg/mL (≈ 5.32 mM) | solubility at 24 h [1, 10]: 1580 µg/mL (≈ 5.46 mM) | solubility at 2 h [1, 11]: > 2000 µg/mL | solubility at 24 h [1, 11]: > 2000 µg/mL | solubility at 2 h [1, 12]: > 2000 µg/mL | solubility at 24 h [1, 12]: > 2000 µg/mL | solubility at 2 h [1, 13]: > 2000 µg/mL | solubility at 24 h [1, 13]: > 2000 µg/mL | solubility at 2 h [1, 14]: > 2000 µg/mL | solubility at 24 h [1, 14]: > 2000 µg/mL | solubility at 2 h ([1]; Water, tested up to 2 mg/mL): 110 µg/mL (≈ 0.38 mM) | solubility at 24 h ([1]; Water, tested up to 2 mg/mL): 140 µg/mL (≈ 0.484 mM) | Water content (% w/w) ([2]; large scale batch): 8.0% w/w | Water content (% w/w) [2, 15]: about 8 % w/w | Water content (% w/w) ([2]; salt screening sample): 8% w/w | 1st Desorp. (%) ([3]; 0% RH): 0.02% | 2nd Sorp. (%) ([3]; 0% RH): 0.02% | 1st Desorp. (%) ([3]; 10% RH): 0.20% | 2nd Sorp. (%) ([3]; 10% RH): 0.002% | 1st Desorp. (%) ([3]; 20% RH): 6.07% | 2nd Sorp. (%) ([3]; 20% RH): 0.007% | 1st Desorp. (%) ([3]; 30% RH): 6.29% | 2nd Sorp. (%) ([3]; 30% RH): 0.02% | 1st Desorp. (%) ([3]; 40% RH): 8.54% | 1st Sorp. (%) ([3]; 40% RH): 8.34% | 2nd Desorp. (%) ([3]; 40% RH): 8.23% | 2nd Sorp. (%) ([3]; 40% RH): 0.02% | 1st Desorp. (%) ([3]; 50% RH): 8.90% | 1st Sorp. (%) ([3]; 50% RH): 8.83% | 2nd Desorp. (%) ([3]; 50% RH): 8.76% | 2nd Sorp. (%) ([3]; 50% RH): 0.04% | 1st Desorp. (%) ([3]; 60% RH): 8.90% | 1st Sorp. (%) ([3]; 60% RH): 8.90% | 2nd Desorp. (%) ([3]; 60% RH): 8.79% | 2nd Sorp. (%) ([3]; 60% RH): 0.06% | 1st Desorp. (%) ([3]; 70% RH): 8.97% | 1st Sorp. (%) ([3]; 70% RH): 8.96% | 2nd Desorp. (%) ([3]; 70% RH): 8.87% | 2nd Sorp. (%) ([3]; 70% RH): 0.12% | 1st Desorp. (%) ([3]; 80% RH): 9.03% | 1st Sorp. (%) ([3]; 80% RH): 9.02% | 2nd Desorp. (%) ([3]; 80% RH): 8.95% | 2nd Sorp. (%) ([3]; 80% RH): 3.80% | 1st Desorp. (%) ([3]; 90% RH): 9.13% | 1st Sorp. (%) ([3]; 90% RH): 9.11% | 2nd Desorp. (%) ([3]; 90% RH): 9.06% | 2nd Sorp. (%) ([3]; 90% RH): 9.00% | 1st Desorp. (%) ([3]; 95% RH): 9.21% | 1st Sorp. (%) ([3]; 95% RH): 9.21% | 2nd Desorp. (%) ([3]; 95% RH): 9.14% | 2nd Sorp. (%) ([3]; 95% RH): 9.14% | Hygroscopicity ([3]; DVS at 25° C., grade in words): undergoes dehydration when relative humidity is below 40% | Weight loss (%) at Temperature (° C.) [4]: 8.0 at % | Weight loss (%) at Temperature (° C.) ([4]; listed as free base (polymorph B)): about 8% | Crystallinity (Crystallinity by XRPD; large scale batch): High | Crystallinity (Crystallinity by XRPD; [15]): high crystallinity | Crystallinity (Crystallinity by XRPD; salt screening sample): High | Salt screening result ([5]; ACN): Clear solution | Salt screening result ([5]; Acetone): Clear solution | Salt screening result ([5]; EtOH): Clear solution | Initial chemical purity (%) ([6]; before storage): 98.7% | chemical purity (%) ([6]; 25° C./92% RH, open container, 1 week): 98.7% | chemical purity (%) ([6]; 40° C./75% RH, open container, 1 week): 98.8% | chemical purity (%) ([6]; 60° C., tight container, 1 week): 98.5% | Bulk stability ([6]; stressed conditions: 25° C./92% RH, 40° C./75% RH, 60° C., 1 week): chemically stable in these conditions, but physically unstable at 60 °C | Weight loss (%) [7]: 8.0% | solubility at 2 h [8]: 110 µg/mL (≈ 0.38 mM) | solubility at 24 h [8]: 140 µg/mL (≈ 0.484 mM)

Reference: US12723024B2 (priority 2021, dated 2026)
